{"source": "BindingDB's records for doi:10.1016/j.bmcl.2005.06.069", "about": "(National Health Research Institutes, 2005)", "molecular_target": "Echovirus 9", "assay": "Inhibitory activity against Echovirus 9 using plaque reduction assay", "data": [{"smiles": "C[C@H](CCOc1ccc(-c2ccc(Cl)cc2)cc1)CCN1CCN(c2ccncc2)C1=O", "note": "[1-[(S)-5-(4'-Chloro-biphenyl-4-yloxy)-3-methyl-pentyl]-3-pyridin-4-yl-imidazolidin-2-one]", "values": [{"measurement": "IC50", "result": "> 25", "unit": "µM"}]}]}
